Measurements taken from patent US12655130B2 (ASSEMBLY BIOSCIENCES, INC., priority 2020, dated 2026).
pEC50: −log10 of the molar value.

The molecules below were run on HBV viral load (viral production from HepAD38 cells) (assay: Activity of test compounds on viral production from HepAD38 cells (viral load by qPCR of HBV core sequence)). Settings: Hepatitis B virus, HePAD38, 120 h, viral load lowering, 5 days, qPCR of supernatant, read-out: VL HepAD38 EC50 range.
Format: cell-based
Procedure: Assay Measuring Activity of Test Compounds on Viral Production from HepAD38 Cells
HepAD38 cells grown in a T-150 flask (Corning, cat #: 430825) with Growth Medium (DMEM/F12 (1:1) (Hyclone, cat #: SH30023.02), 1× Pen/Strep (Invitrogen, cat #: 15140-122), 10% FBS (Tissue Culture Biologics, cat #: 101), 250 μg/mL G418 (Alfa Aesar, cat #: J62671), 1 μg/mL Tetracycline (Teknova, cat #: T3320)) were detached with 0.25% trypsin-EDTA (Invitrogen, cat #: 25200-056). Tetracycline-free treatment medium (15 mL DMEM/F12 (1:1) 1× Pen/step, with 2% FBS, Tet-system approved (Clontech, cat #: 631106) were then added to mix, transferred into a 50 ml conical tube (Falcon, cat #: 21008-918) and spun at 1300 rpm for 5 min. Pelleted cells were then re-suspended/washed with 50 mL of 1×DPBS (Invitrogen, cat #: 14190-136) 2 times and 50 mL treatment medium twice. HepAD38 cells were then re-suspended with 10 mL of treatment medium, syringed and counted. Wells of 96-well clear bottom TC plate (Corning, cat #: 3904) were seeded at 50,000 cells/well in 180 μL of treatment medium, and 20 μL of either 10% DMSO (Sigma, cat #: D4540) as controls or a 10× solution of test compounds in 10% DMSO in treatment media was added for a final compound concentration starting at 10 μM, and plates were incubated in 5% CO2 incubator at 37° C. for 5 days.
Subsequently viral load production was assayed by quantitative PCR (qPCR) of the HBV core sequence. PCR reaction mixture containing forward primers HBV-f 5′-CTGTGCCTTGGGTGGCITT-3′ (IDT DNA), Reverse primers HBV-r 5′-[…]-3′ (IDT DNA), Fluorescent TaqMan™ Probes HBV-probe 5′-FAM/AGCTCCAAA/ZENMITCTITATAAGGGTCGATGTC/3IABkFQ-3′ (IDT DNA), 10 μL/well of PerfeCTa® qPCR ToughMix® (Quanta Biosciences, Cat #: 95114-05K), and 6 μL/well of DEPC water (Alfa Aesar, cat #: J62087) was prepared. Four μL of supernatant was added to 16 μL of the reaction mixture in a qPCR plate (Applied Biosytems, Cat #: 4309849), sealed with a film (Applied Biosystems, Cat #: 4311971), centrifuged for a few seconds, and subsequently run on an Applied Biosystems VIIA7. The PCR mixture was incubated at 45° C. for 5 min, then 95° C. for 10 min, followed by 40 cycles of 10 seconds at 95° C. and 20 seconds at 60° C. Viral load was quantified against known HBV DNA standards by using ViiA™ 7 Software. Viral load in the supernatant from wells with treated cells were compared against viral load in supernatant from DMSO control wells (3 per plate). Cell viability assay was performed with CellTiter-Glo Luminescent Cell Viability Assay (Promega, cat #: G7573) with modification. Mixed appropriate amount of CellTiter-Glo (CTG) 1×DPBS in a 1:1 ratio, added 100 uL of the mixture to each well followed completely removal of all supernatant in each well without touching cell surface. Incubated the plate at room temperature for 10 min on an orbital shaker, and then read the plate with a plate reader (TECAN M1000 or Envision). EC50 or CC50 values were calculated through curve-fitting of the four-parameter nonlinear-logistic-regression model (GraphPad Prism or Dotmatics). CC50 values were all >10 μM.

Compound | pEC50
Cn1ccc(C2(O)CC3CC(c4ncn(C)c4C(=O)Nc4ccc(F)c(Cl)c4)CC3C2)n1 (stereo not drawn) [Example 118, N-(3-chloro-4-fluorophenyl)-4-(5-hydroxy-5-(1-methyl-1H-pyrazol-3-yl)octahydropentalen-2-yl)-1-methyl-1H-imidazole-5-carboxamide] | > 8.00
Cn1cnc(C2CC3CC(O)(c4c(F)c(C#N)nn4C)CC3C2)c1C(=O)Nc1ccc(F)c(Cl)c1 (stereo not drawn) [Example 64, N-(3-Chloro-4-fluorophenyl)-4-(5-(3-cyano-4-fluoro-1-methyl-1H-pyrazol-5-yl)-5-hydroxyoctahydropentalen-2-yl)-1-methyl-1H-Imidazole-5-carboxamide] | > 8.00
Cn1cnc(C2CC3CC(O)(c4cc(C(C)(C)C(F)(F)F)nn4C)CC3C2)c1C(=O)Nc1ccc(F)c(Cl)c1 (stereo not drawn) [Example 105, N-(3-chloro-4-fluorophenyl)-4-(5-hydroxy-5-(1-methyl-3-(1,1,1-trifluoro-2-methylpropan-2-yl)-1H-pyrazol-5-yl)octahydropentalen-2-yl)-1-methyl-1H-imidazole-5-carboxamide] | > 8.00
O=C1CC2CC(c3ncsc3C(=O)Nc3ccc(F)c(Cl)c3)CC2C1 (stereo not drawn) [Example 38, N-(3-Chloro-4-fluorophenyl)-4-(5-oxooctahydropentalen-2-yl)thiazole-5-carboxamide] | > 8.00
Cn1cnc(C2CC3CC(O)(c4cc(OCC(C)(O)CO)nn4C)CC3C2)c1C(=O)Nc1ccc(F)c(Cl)c1 (stereo not drawn) [Example 218, N-(3-Chloro-4-fluorophenyl)-4-(5-(3-(2,3-dihydroxy-2-methylpropoxy)-1-methyl-1H-pyrazol-5-yl)-5-hydroxyoctahydropentalen-2-yl)-1-methyl-1H-imidazole-5-carboxamide] | > 8.00
CCn1nc(C(F)F)cc1C1(O)CC2CC(c3ncn(C)c3C(=O)Nc3ccc(F)c(C#N)c3)CC2C1 (stereo not drawn) [Example 192, N-(3-Cyano-4-fluorophenyl)-4-(5-(3-(difluoromethyl)-1-ethyl-1H-pyrazol-5-yl)-5-hydroxyoctahydropentalen-2-yl)-1-methyl-1H-imidazole-5-carboxamide] | > 8.00
CCn1ncc(C2(O)CC3CC(c4ncn(C)c4C(=O)Nc4ccc(F)c(Cl)c4)CC3C2)c1C(F)(F)F (stereo not drawn) [Example 174, N-(3-Chloro-4-fluorophenyl)-4-(5-(1-ethyl-5-(trifluoromethyl)-1H-pyrazol-4-yl)-5-hydroxyoctahydropentalen-2-yl)-1-methyl-1H-imidazole-5-carboxamide] | > 8.00
Cn1cnc(C2CC3CC(O)(c4c(F)c(OCCO)nn4C)CC3C2)c1C(=O)Nc1ccc(F)c(Cl)c1 (stereo not drawn) [Example 213, N-(3-Chloro-4-fluorophenyl)-4-(5-(4-fluoro-3-(2-hydroxyethoxy)-1-methyl-1H-pyrazol-5-yl)-5-hydroxyoctahydropentalen-2-yl)-1-methyl-1H-imidazole-5-carboxamide] | > 8.00
Cc1nc(C2CC3CC(O)(CS(C)(=O)=O)CC3C2)c(C(=O)Nc2ccc(F)c(Cl)c2)n1C (stereo not drawn) [Example 25, N-(3-Chloro-4-fluorophenyl)-4-(5-hydroxy-5-((methylsulfonyl)methyl)octahydropentalen-2-yl)-1,2-dimethyl-1H-imidazole-5-carboxamide] | > 8.00
CC(N)C(=O)Nc1cc(C2(O)CC3CC(c4ncn(C)c4C(=O)Nc4ccc(F)c(Cl)c4)CC3C2)n(C)n1 (stereo not drawn) [Example 219, 4-(5-(3-(2-Aminopropanamido)-1-methyl-1H-pyrazol-5-yl)-5-hydroxyoctahydropentalen-2-yl)-N-(3-chloro-4-fluorophenyl)-1-methyl-1H-imidazole-5-carboxamide] | > 8.00
Cc1nn(C)c(C2(O)CC3CC(c4ncn(C)c4C(=O)Nc4ccc(F)c(Cl)c4)CC3C2)c1F (stereo not drawn) [Example 92, N-(3-chloro-4-fluorophenyl)-4-(5-(4-fluoro-1,3-dimethyl-1H-pyrazol-5-yl)-5-hydroxyoctahydropentalen-2-yl)-1-methyl-1H-imidazole-5-carboxamide] | > 8.00
Cn1cnc(C2CC3CC(O)(c4c[nH]nc4C(F)F)CC3C2)c1C(=O)Nc1ccc(F)c(Cl)c1 (stereo not drawn) [Example 170, N-(3-Chloro-4-fluorophenyl)-4-(5-(3-(difluoromethyl)-1H-pyrazol-4-yl)-5-hydroxyoctahydropentalen-2-yl)-1-methyl-1H-imidazole-5-carboxamide] | > 8.00
CC(C)Cn1nc([N+](=O)[O-])cc1C1(O)CC2CC(c3ncn(C)c3C(=O)Nc3ccc(F)c(Cl)c3)CC2C1 (stereo not drawn) [Example 165, N-(3-Chloro-4-fluorophenyl)-4-(5-hydroxy-5-(1-isobutyl-3-nitro-1H-pyrazol-5-yl)octahydropentalen-2-yl)-1-methyl-1H-imidazole-5-carboxamide] | > 8.00
Cn1cnc(C2CC3CC(O)(c4cc(C(F)(F)F)n[nH]4)CC3C2)c1C(=O)Nc1ccc(F)c(Cl)c1 (stereo not drawn) [Example 179, N-(3-Chloro-4-fluorophenyl)-4-(5-hydroxy-5-(3-(trifluoromethyl)-1H-pyrazol-5-yl)octahydropentalen-2-yl)-1-methyl-1H-imidazole-5-carboxamide] | > 8.00
Cn1cnc(C2CC3CC(O)(c4c(F)c(OCC(O)C(F)(F)F)nn4C)CC3C2)c1C(=O)Nc1ccc(F)c(Cl)c1 (stereo not drawn) [Example 62, N-(3-Chloro-4-fluorophenyl)-4-(5-(4-fluoro-1-methyl-3-(3,3,3-trifluoro-2-hydroxypropoxy)-1H-pyrazol-5-yl)-5-hydroxyoctahydropentalen-2-yl)-1-methyl-1H-imidazole-5-carboxamide] | > 8.00
Cn1cnc(C2CC3CC(O)(c4[nH]ncc4Cl)CC3C2)c1C(=O)Nc1ccc(F)c(Cl)c1 (stereo not drawn) [Example 143, 4-(5-(4-Chloro-1H-pyrazol-5-yl)-5-hydroxyoctahydropentalen-2-yl)-N-(3-chloro-4-fluorophenyl)-1-methyl-1H-imidazole-5-carboxamide] | > 8.00
Cn1c(Cl)nc(C2CC3CC(=O)CC3C2)c1C(=O)Nc1ccc(F)c(Cl)c1 (stereo not drawn) [Example 21, 2-Chloro-N-(3-chloro-4-fluorophenyl)-1-methyl-4-(5-oxooctahydropentalen-2-yl)-1H-imidazole-5-carboxamide] | > 8.00
CCn1nccc1C1(O)CC2CC(c3ncn(C)c3C(=O)Nc3ccc(F)c(Cl)c3)CC2C1 (stereo not drawn) [Example 119, N-(3-chloro-4-fluorophenyl)-4-(5-(1-ethyl-1H-pyrazol-5-yl)-5-hydroxyoctahydropentalen-2-yl)-1-methyl-1H-imidazole-5-carboxamide] | > 8.00
CC(C)n1ncc(C2(O)CC3CC(c4ncn(C)c4C(=O)Nc4ccc(F)c(Cl)c4)CC3C2)c1C(F)(F)F (stereo not drawn) [Example 158, N-(3-Chloro-4-fluorophenyl)-4-(5-hydroxy-5-(1-isopropyl-5-(trifluoromethyl)-1H-pyrazol-4-yl)octahydropentalen-2-yl)-1-methyl-1H-imidazole-5-carboxamide] | > 8.00

Same assay, conditions: viral load lowering, 5 days, qPCR of supernatant, read-out: VL HepAD38 EC50 range

Compound | pEC50
CC(O)c1nn(C)cc1C1(O)CC2CC(c3ncn(C)c3C(=O)Nc3ccc(F)c(Cl)c3)CC2C1 (single isomer, unassigned) [Example 189, N-(3-Chloro-4-fluorophenyl)-4-(5-hydroxy-5-(3-(1-hydroxyethyl)-1-methyl-1H-pyrazol-4-yl)octahydropentalen-2-yl)-1-methyl-1H-imidazole-5-carboxamide] | > 8.00
O=C1CC2CC(c3nc4n(c3C(=O)Nc3ccc(F)c(Cl)c3)CCCC4)CC2C1 (stereo not drawn) [Example 81, N-(3-Chloro-4-fluorophenyl)-2-(5-oxooctahydropentalen-2-yl)-5,6,7,8-tetrahydroimidazo[1,2-a]pyridine-3-carboxamide] | 7.30 to 8.00
